Laboratory results: patent US20090312316A1, “NOVEL COMPOUNDS” (priority 2006, published 2009)
In brackets after ≈: the same amount, converted by molar mass.

Columns and labels:
[1] = test system: protein synthesis in the cultured rat cells; conditions: cited from earlier work
[2] = molecular target: cyclin-dependant kinase Cdc28/Cln2 (Saccharomyces cerevisiae, UniProt P00546); conditions: Tsuchiya et al., 2001; cited from earlier work
[3] = test system: VEGF-induced angiogenesis (WiDr cells); conditions: 1.8 mg/kg by intraperitoneal injection; Funahashi et al., 1999; cited from earlier work
[4] = test system: panel of 12 human tumour cell lines; experiment: monolayer proliferation assay (modified propidium iodide assay) in a panel of 12 human tumour cell lines; assay type: cell-based
Method: In vitro evaluation of compounds for anticancer activity in a panel of 12 human tumour cell lines in a monolayer proliferation assay was carried out at the Oncotest Testing Facility, Institute for Experimental Oncology, Oncotest GmbH, Freiburg.
The Oncotest cell lines were established from human tumor xenografts as described by Roth et al., (1999). The origin of the donor xenografts was described by Fiebig et al., (1999). Other cell lines were either obtained from the NCI (H460, SF-268, OVCAR-3, DU145, MDA-MB-231, MDA-MB-468) or purchased from DSMZ, Braunschweig, Germany (LNCAP).
All cell lines, unless otherwise specified, were grown at 37° C. in a humidified atmosphere (95% air, 5% CO2) in a ‘ready-mix’ medium containing RPMI 1640 medium, 10% fetal calf serum, and 0.1 mg/mL gentamicin (PAA, Cölbe, Germany).
A modified propidium iodide assay was used to assess the effects of the test compound(s) on the growth of human tumour cell lines (Dengler et al., (1995)).
Briefly, cells were harvested from exponential phase cultures by trypsinization, counted and plated in 96 well flat-bottomed microtitre plates at a cell density dependent on the cell line (5-10.000 viable cells/well). After 24 h recovery to allow the cells to resume exponential growth, 0.010 mL of culture medium (6 control wells per plate) or culture medium containing macbecin were added to the wells. Each concentration was plated in triplicate. Compounds were applied in two concentrations (0.001 mM and 0.01 mM). Following 4 days of continuous exposure, cell culture medium with or without test compound was replaced by 0.2 mL of an aqueous propidium iodide (PI) solution (7 mg/L). To measure the proportion of living cells, cells were permeabilized by freezing the plates. After thawing the plates, fluorescence was measured using the Cytofluor 4000 microplate reader (excitation 530 nm, emission 620 nm), giving a direct relationship to the total number of viable cells.
The mean growth inhibition across the 12 cell-line panel was expressed as treated/control×100 (% T/C).
In vitro evaluation of the test compounds for anticancer activity in a panel of human tumour cell lines in a monolayer proliferation assay was carried out as described in the general methods using a modified propidium iodide assay. This screen may be used as a model for the toxic effect of compounds in inhibiting general cell growth.

[5] = test system: Lewis lung adenocarcinoma; conditions: WO 01/09113; cited from earlier work
capillary tube formation = conditions: Wakabayashi et al., 1997, cited from earlier work
B16-BL6 melanoma cells = conditions: same dosage (1.8 mg/kg); cited from earlier work
[6] = test system: human umbilical vein endothelial cells (HUVEC); conditions: cited from earlier work
CAM vasculature = experiment: Chick chorioallantoic membrane (CAM) assay of anti-angiogenic activity; assay type: in vivo
Method: Fresh fertile eggs were be incubated for 3 days in a standard egg incubator at 37° C. for 3 days. On Day 3, eggs were cracked under sterile conditions and embryos were placed into 20×100 mm plastic plates and cultivated at 37° C. in an embryo incubator with a water reservoir on the bottom shelf. Air was continuously bubbled into the water reservoir using a small pump so that the humidity in the incubator was kept constant. […] Embryos were returned to the incubator after addition of test material. Control embryos received 10 μL of vehicle alone. […] The blood vessel density was semi-quantitatively measured using an angiogenesis scoring system, in that exponential numbers 1 to 32 were used to indicate number of blood vessels present at the treatment sites on the CAM. Number 32 represented the highest density and 0 represented no angiogenesis. The percent of inhibition at each dosing site was calculated using the score recorded for that site divided by the mean score obtained from the appropriate control samples for each individual experiment. The percent of inhibition for each dose of a given compound was calculated by pooling all results obtained for that dose.

cyclin-dependant kinase Cdc28/Cln2, sequence (P00546 whole entry): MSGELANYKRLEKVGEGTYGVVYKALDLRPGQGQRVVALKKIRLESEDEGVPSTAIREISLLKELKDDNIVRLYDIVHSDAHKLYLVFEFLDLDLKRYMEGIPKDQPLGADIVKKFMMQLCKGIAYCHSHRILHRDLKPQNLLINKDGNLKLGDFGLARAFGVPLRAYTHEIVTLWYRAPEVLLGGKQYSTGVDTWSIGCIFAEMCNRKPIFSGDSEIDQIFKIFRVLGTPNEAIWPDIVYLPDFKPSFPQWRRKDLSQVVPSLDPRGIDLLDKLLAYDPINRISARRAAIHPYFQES
cyclin-dependant kinase Cdc28/Cln2, sequence (P20438 whole entry partner): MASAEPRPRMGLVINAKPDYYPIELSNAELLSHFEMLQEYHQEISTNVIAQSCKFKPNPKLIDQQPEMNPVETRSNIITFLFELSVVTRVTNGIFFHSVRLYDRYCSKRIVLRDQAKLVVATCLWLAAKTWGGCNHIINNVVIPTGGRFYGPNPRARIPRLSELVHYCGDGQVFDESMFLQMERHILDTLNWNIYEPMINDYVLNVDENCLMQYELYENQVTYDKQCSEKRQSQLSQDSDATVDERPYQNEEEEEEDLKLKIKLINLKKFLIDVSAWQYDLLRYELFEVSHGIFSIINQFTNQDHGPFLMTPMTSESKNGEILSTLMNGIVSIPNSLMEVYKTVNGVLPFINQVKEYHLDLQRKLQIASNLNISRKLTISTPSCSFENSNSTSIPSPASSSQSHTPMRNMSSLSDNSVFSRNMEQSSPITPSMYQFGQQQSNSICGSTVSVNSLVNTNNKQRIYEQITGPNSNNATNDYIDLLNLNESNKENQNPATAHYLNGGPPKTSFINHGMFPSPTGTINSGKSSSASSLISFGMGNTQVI

SMILES: C[C@@H]1C[C@H](C)C[C@H](C)[C@@H](O)CC(=O)O[C@H]([C@@H]2CCC[C@H]2C(=O)O)C/C=C/C=C(/C#N)[C@H](O)[C@@H](C)C1 [Compound 1, Borrelidin]
- anti-angiogenesis IC50 lower than IC50 for inhibition of protein synthesis ([1]; 0.4 ng/mL versus 20 ng/mL): 50 fold
- IC50 inhibition of protein synthesis ([1]; cultured rat cells): 0.02 µg/mL
- IC50 Cdc28/Cln2 [2]: 12 µg/mL (≈ 24.5 µM)
- increment of vascular volume induced by WiDr cells [3]: significantly reduce
- Mean % T/C at 1 μM ([4]; 1 μM, mean growth across 12 cell-line panel, treated/control x 100, 4 days exposure): 7 % T/C
- Mean % T/C at 10 μM ([4]; 10 μM, mean growth across 12 cell-line panel, treated/control x 100, 4 days exposure): 6 % T/C
- inhibition at 1 µM ([4]; Homo sapiens, 1 uM, 100 minus mean %T/C at 1 uM of Table III, read-out: Mean percentage Inhibition of cancer cell lines at 1 uM): 93%
- propagation of metastatic nodules after removal of the primary tumour [5]: weakly inhibited
- IC50 inhibition of capillary tube formation (capillary tube formation): 0.0004 µg/mL
- IC50 (capillary tube formation; read-out: IC50 inhibition of capillary tube formation): 0.8 nM
- inhibition of the formation of spontaneous lung metastases (B16-BL6 melanoma cells): effective
- IC50 anti-proliferative activity towards HUVEC ([6]; cell growth assay, Wakabayashi et al., 1997): 0.006 µg/mL (≈ 0.0123 µM)
- HUVEC anti-proliferative IC50 weaker than anti-angiogenesis activity ([6]; measured in the same medium): 15 fold
- Mean percentage inhibition of CAM vasculature at 25 ng/CAM (CAM vasculature; 25 ng/CAM): 62%
- Ratio of inhibition of CAM vasculature at 25 ng/CAM to in vitro cancer cell inhibition at 1 uM (CAM vasculature; 25 ng/CAM versus 1 uM in cancer cell panel): 0.6
- Mean blood vessel density score (CAM vasculature; angiogenesis score up to 32 (highest density), 0 = no angiogenesis, mean of ten experiments): 6.4
